Key:
[1] = system: sIgA; assay: IgA quantification (sandwich ELISA of intestinal washings); type: in vivo, pig; conditions: 10 mmol/L; compared to standard PN (s-PN)
Procedure: Small intestine probes for IgA level determination were obtained by flushing the small intestine with chilled HBSS (Hank's Balanced Salt Solution). Nasal and bronchoalveolar washings for measurement of respiratory tract IgA levels were obtained by lavage with 1 mL phosphate-buffered saline solution under anesthesia. The washings were stored in a −80° C. freezer until IgA analysis. IgA was measured in small intestinal and respiratory tract washings by sandwich enzyme-linked immunosorbent assay using a polyclonal goat anti-mouse IgA (Sigma) to coat the plate, a purified mouse IgA (Zymed Laboratories, San Francisco, Calif.) as the standard, and a horseradish peroxidase-conjugated goat anti-mouse IgA (Sigma) Results are shown in FIG. 13.

[2] = system: cytokines Il-1β, Il-6, TNF-α, Il-8, Il-10; assay: Cytokine quantification in jejunal and ileal samples; type: in vivo, pig; conditions: compared to standard PN (s-PN)
Procedure: Digestive Diseases and Sciences 2002; 47:2049-2055. Jejunal and ileal samples were homogenized in double-distilled water, and the Bradford protein assay (Biorad, Hercules, Calif., USA) was performed on homogenate and plasma samples. Protein (30 μg) from each sample was denatured by boiling, and proteins were separated by size using 12.5% sodium dodecyl sulfate polyacrylamide gel electrophoresis. Separated proteins were transferred to polyvinylidene difluoride membranes (Biorad) using a semidry transfer apparatus (Biorad). Western blot analysis for TNF-alpha, IL-1beta, Il-10 and IL-6 was performed using porcine-specific polyclonal antibodies (Endogen, Woburn, Mass., USA). A mouse anti-pig monoclonal TNF-alpha antibody was used to detect TNF-alpha ([…]) Rabbit anti-pig polyclonal antibodies specific for IL-1beta and IL-6 were used to detect IL-1beta ([…]), Il-10 ([…]) and IL-6 ([…]). Membranes were developed using the Opti-4CN kit (Biorad) and photographed using the FOTO/Analyst Image Analysis System (Fotodyne, Inc., Hart-land, Wisconsin, USA). Densitometry of TNF-alpha, IL-1beta, IL-6, and Il-10 was performed using Collage Image Analysis Software 4.0 (Fotodyne, Inc.). Results are shown in FIG. 15 (Il-6), FIG. 16 (Ill-beta), FIG. 17 (TNF-alpha) and FIG. 18 (Il-10).

[3] = system: metastatic colorectal cancer patients; conditions: aqueous solution, pH 7.7; phase I clinical trial; cited from earlier work
[4] = Stability of butyrate derivatives in PN compositions (sterilization, storage; GC-FID); type: physicochemical; conditions: for free butyric acid released in the lipid chamber during sterilization: after compounding and sterilization of the bags
Procedure: The concentration of arginine butyrate can be varied relatively broadly over the disclosed range.
Compositions used are described in Table 4 and Table 5. After compounding of the respective butyrate derivatives into the respective chambers of the bags and following sterilization, free butyric acid was measured in the lipid chamber (for tributyrin and DPBG compositions) and the butyrate content in the amino acid chamber was determined. […] In case of the amino acid chamber, the recovery of butyrate after sterilization corresponds to what was introduced. Accordingly, no deterioration of the salt occurred during or after sterilization. In addition, the stability of the composition over time (12 months, 25° C., 40% RH) was confirmed. The free butyric acid can be quantified by GC-FID, after sample preparation by liquid-liquid extraction of the lipid emulsion or directly from amino acid solution. These methods are known in the art.

free butyric acid released in the lipid chamber during sterilization [4] | Compound | Jejunal sIgA Concentration [1] | Ileal Cytokine Concentration (less pro-inflammatory cytokines Il-1β, Il-6, TNF-α) ([2]; 10 mmol/L) | Ileal Cytokine Concentration (more anti-inflammatory cytokines Il-8, Il-10) ([2]; 10 mmol/L) | Jejunal Cytokine Concentration (less pro-inflammatory cytokines Il-1β, Il-6, TNF-α) ([2]; 10 mmol/L) | Jejunal Cytokine Concentration (more anti-inflammatory cytokines Il-8, Il-10) ([2]; 10 mmol/L) | tolerated dose [3] [g/kg/day] | shelf-life over which stable in the amino acid formulation ([4]; 25° C. and 40% relative humidity (RH), also stable during production, sterilization) | Ileal Cytokine Concentration (less pro-inflammatory cytokines Il-1β, Il-6, TNF-α) ([2]; 30 mmol/L) | Jejunal Cytokine Concentration (less pro-inflammatory cytokines Il-1β, Il-6, TNF-α) ([2]; 30 mmol/L) | Jejunal Cytokine Concentration (more anti-inflammatory cytokines Il-8, Il-10) ([2]; 30 mmol/L)
– | L-arginine, butanoate (3:4) [Arginine Butyrate] | +++^3 (+++ indicate P < 0.01) | +++ (+++ indicate P < 0.01) | +^4 | +++ (+++ indicate P < 0.01) | ++ (++ indicates P < 0.05) | 3 | at least 12 months | – | – | –
only very limited amounts | CCCCCCCCCCCCCCCC(=O)OCC(COC(=O)CCC)OC(=O)CCCCCCCCCCCCCCC (stereo not drawn) [DPBG, 1,2-Dipalmitoyl 3-butyryl glycerol] | – | – | – | – | – | – | – | – | – | –
only very limited amounts | CCCC(=O)OCC(COC(=O)CCC)OC(=O)CCC [Tributyrin] | – | ++ (++ indicates P < 0.05) | + | +++ (+++ indicate P < 0.01) | – | – | – | ++ (++ indicates P < 0.05) | +++ (+++ indicate P < 0.01) | +
